Measured values: patent publication US20180050018A1, “PERIPHERAL-ANTICHOLINERGIC MUSCARINIC AGONIST COMBINATION” (Chase Pharmaceuticals Corporation, priority 2015, published 2018)

Key:
[1] = tested on: Male Swiss mice; assay: T-maze continuous alternation task (T-CAT) in mice; type: in vivo
Source text: Evaluation of Cognition with Oxybutynin and Xanomeline in the T-maze Alternation Task in Mice The T-maze continuous alternation task (T-CAT) is useful as model for studying compounds with cognitive enhancing properties. The T-maze consists of 2 choice arms and 1 start arm mounted to a square center. Manual doors are provided to close specific arms during the force choice alternation task. Male Swiss mice (4-6 weeks old), N=10 per treatment group were used, and were pre-treated with: • Oxybutynin at the dose that blocked fecal pellet excretion in Study 2 of Example 1. […] Mice were randomly assigned to one of the different experimental treatment groups. Each animal was identified by its group name, cage number, series (day) of experiment, and number (1 to 10) written with permanent ink on the tail. The T-maze apparatus is made of gray Plexiglas with a main stem (55 cm long×10 cm wide×20 cm high) and two arms (30 cm long×10 cm wide×20 cm high) positioned at 90 degree angle relative to the main stem. A start box (15 cm long×10 cm wide) is separated from the main stem by a guillotine door. Horizontal doors are also provided to close specific arms during the force choice alternation task.
The experimental protocol consisted of one single session, which started with 1 “forced-choice” trial, followed by 14 “free-choice” trials. In the first “forced-choice” trial, animals were confined for 5 seconds to the start arm and then were released while either the left or the right goal arm was blocked by the horizontal door. Animals then negotiated the maze, eventually entering the open goal arm, and returned to the start position. […]
The apparatus was cleaned between each animal using 40% ethanol. […] The percentage of alternation over the 14 free-choice trials was determined for each mouse and was used as an index of working memory performance. […] The drug-induced improvement of memory was calculated by setting the respective response of the saline/vehicle as 100% and that of the test group as 0% reversion. […]

[2] = tested on: Male Swiss mice; assay: Antagonism of xanomeline-induced diarrhea in mice by oxybutynin (fecal pellet count); type: in vivo; details: oxybutynin i.p. 0.3 to 30 mg/kg, 30 minutes before xanomeline 30 mg/kg
Experimental: Male Swiss mice (4-6 weeks old), N=10 per treatment group were used. Animals were pretreated with i.p. oxybutynin (a representative peripheral muscarinic receptor antagonist) or vehicle; 30 minutes later animals were treated with xanomeline at a dose of 30 mg/kg that caused diarrhea (as determined in Experiment 1). The dose of oxybutynin ordinarily ranged from 0.3 to 30 mg/kg. Mice were placed individually in cages without any bedding materials. During the experiment the number of fecal pellets was counted at different time-points as outlined below: • T-1h to T0: counting of the accumulated fecal pellets excreted, • T0: administration of oxybutinin. • T30 min: administration of vehicle or xanomeline. • T 30 min to T 2.5 h: counting of accumulated fecal pellets excreted. • T+2.5 h to T+4.5 h: counting of accumulated fecal pellets excreted. The total number of fecal pellets for each mouse was counted over time. An analysis of variance (ANOVA) was performed on the results. Fisher's Protected Least Significant Difference was used for pairwise comparisons. The p value ≦0.05 were considered significant. Grubbs' test (http (hypertext transfer protocol) www at graphpad.com/quickcalcs/Grubbs1.cfm) was used to detect outliers for each parameter in each experimental group.

[3] = oral and iontophoretic patch administration, with oxadiazole muscarinic agonists; cited from earlier work
[4] = cited from earlier work
[5] = tested on: rats and monkeys; details: rats and monkeys (Schwarz 1999); cited from earlier work
[6] = tested on: patients with Alzheimer disease; details: cited from earlier work
[7] = tested on: Male Swiss mice; assay: Dose-response to xanomeline in a mouse model of diarrhea (fecal pellet count); type: in vivo; details: xanomeline i.p. 0.3 to 30 mg/kg
Source text: Male Swiss mice (4-6 weeks old), N=10 per treatment group were used, and treated intra-peritoneally (i.p.) with either vehicle (vehicle group) or increasing doses of xanomeline, a representative muscarinic agonist. Mice were randomly assigned to one of two experimental groups (vehicle; or increasing doses of xanomeline). Each animal was identified by its group name, cage number, series (day) of experiment, and number (1 to 10) written with permanent ink on the tail. Mice were placed individually in cages without any bedding materials. During the experiment the number of fecal pellets were counted at different time-points, starting one hour before the time of the administration of the test compound (TO), as outlined below: • T-1 h to T0: counting of the accumulated fecal pellets excreted. • T0: administration of the test compound, • T0 to T+2 h: counting of the accumulated fecal pellets excreted, • T+2 h to T+4 h: counting of the accumulated fecal pellets excreted, The total number of fecal pellets for each mouse was counted over time. An analysis of variance (ANOVA) was performed on the results. Fisher's Protected Least Significant Difference was used for pairwise comparisons; p values <0.05 were considered significant. Grubbs' test (http (hypertext transfer protocol) www at graphpad.com/quickcalcs/Grubbs1.cfm) was used to detect outliers for each parameter in each experimental group.

CCN(CC)CC#CCOC(=O)C(O)(c1ccccc1)C1CCCCC1 (stereo not shown) [oxybutynin]
ability to perform the T-maze test after pretreatment ([1]; i.p. oxybutynin pretreatment 30 minutes before xanomeline): restored the animals' ability to perform the T-maze test
antagonism of xanomeline-induced diarrhea [2]: dose-dependently antagonized the diarrhea induced by xanomeline
effectiveness relative to the other muscarinic antagonists [3]: less effective than the other muscarinic antagonists

O=C(O[C@H]1CN2CCC1CC2)N1CCc2ccccc2[C@@H]1c1ccccc1 [solifenacin succinate, (1S)-(3R)-1-azabicyclo [2.2.2] oct-3-yl 3,4-dihydro-1-phenyl-2(1H)-iso-quinolinecarboxylate]
half-life (in words) ([4]; in vivo): long half-life

CO/N=C/C1=CCCN(C)C1 [milameline, (E)-N-methoxy-1-(1-methyl-1,2,5,6-tetrahydropyridin-3-yl)methanimine]
doses producing central cholinergic action relative to doses stimulating peripheral cholinergic receptors [5]: doses slightly lower than those stimulating peripheral cholinergic receptors

NC(=O)C(c1ccccc1)(c1ccccc1)[C@@H]1CCN(CCc2ccc3c(c2)CCO3)C1 [darifenacin]
effectiveness relative to the other muscarinic antagonists [3]: less effective than the other muscarinic antagonists

O=C(O[C@H]1C[C@H]2CC[C@@H](C1)[N+]21CCCC1)C(O)(c1ccccc1)c1ccccc1 [trospium chloride, Azoniaspiro [3β-benziloyloxy-(1α,5α)-nortropane-8,1′-pyrrolidine] chloride]
average plasma half-life ([4]; absorbed amount): about 18 hours

CCCCCCOc1nsnc1C1=CCCN(C)C1 [xanomeline, 3-(4-hexyloxy-1,2,5-thiadiazol-3-yl)-1-methyl-5,6-dihydro-2H-pyridine]
ability to perform the T-maze test at the higher dose ([1]; i.p. xanomeline, higher dose (dose that caused diarrhea)): animals were too sick to perform the test
performance in the T-maze (percentage of alternation, working memory) ([1]; i.p. xanomeline, mice): dose-dependent increase in performance in the T-maze
cognitive and behavioral symptoms compared to placebo ([6]; 6-month trial in Alzheimer disease patients (Bodick et al, 1997)): significantly improve cognitive and behavioral symptoms of Alzheimer disease
discontinuation rate due to side effects ([6]; Alzheimer's patient population (Mirza et al. 2003)): higher than 50%
side effects ([6]; bradycardia, gastro-intestinal distress, excessive salivation, sweating, Alzheimer disease patients): dose-dependent unacceptable side effects
diarrhea (number of fecal pellets excreted) [7]: dose-dependently causes diarrhea
